Source: article PMC11878344 (Angewandte Chemie (International Ed. in English), 2025)
Where two headings read alike, the source gives them in different places.

Columns and labels:
MAGL = test system: MAGL; parameters: method as in PMID 35089028, PMID 34764251, PMID 34328319, PMID 29498843; settings: known MAGL ligands of Figure 1; cited from earlier work
human MAGL = biological target: T1, human MAGL (Homo sapiens, UniProt Q99685); experiment: In vitro MAGL inhibition assay (2-AG hydrolysis followed by mass spectrometry); format: biochemical
T1 sequence (Q99685 1-303): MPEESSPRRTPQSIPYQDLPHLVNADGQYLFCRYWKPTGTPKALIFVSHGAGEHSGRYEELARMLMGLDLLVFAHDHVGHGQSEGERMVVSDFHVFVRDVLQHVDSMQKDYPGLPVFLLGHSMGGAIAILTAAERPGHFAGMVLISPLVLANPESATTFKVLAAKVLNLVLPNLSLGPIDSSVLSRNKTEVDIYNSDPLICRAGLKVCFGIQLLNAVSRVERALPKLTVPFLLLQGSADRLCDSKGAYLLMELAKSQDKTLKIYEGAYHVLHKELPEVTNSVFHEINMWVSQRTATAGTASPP
Method: (§1) 4. Experimental Details of Biochemical Assays and Crystal Structure
(§2) In Vitro MAGL Inhibition Assay
(§3) Compounds were profiled for MAGL inhibitory activity by determining the enzymatic activity by following the hydrolysis of the natural substrate 2-arachidonoylglycerol (2-AG), resulting in arachidonic acid, which can be followed by mass spectrometry. The 2-AG assay was carried out in 384 well assay plates (PP, Greiner Cat# 784201) in a total volume of 20 µL. Compound dilutions were made in 100% DMSO (VWR Chemicals 23500.297) in a polypropylene plate in 3-fold dilution steps to give a final concentration range in the assay from 12.5 µM to 0.8 pM. 0.25µL compound dilutions (100% DMSO) were added to 9 µL MAGL in assay buffer (50 mM TRIS (GIBCO, 15567-027), 1 mM EDTA (Fluka, 03690-100 mL), 0.01% (v/v) Tween. After shaking, the plate was incubated for 15 min at RT. To start the reaction, 10 µL 2-arachidonoylglycerol in assay buffer was added. The final concentrations in the assay were 50 pM MAGL and 8 µM 2-arachidonoylglyerol. After shaking and 30 min incubation at RT, the reaction was quenched by the addition of 40µL of ACN containing 4 µM of d8-arachidonic acid. The amount of arachidonic acid was traced by an online SPE system (Agilent Rapidfire) coupled to a triple quadrupole mass spectrometer (Agilent 6460). A C18 SPE cartridge (G9205A) was used in an ACN/water liquid setup. The mass spectrometer was operated in negative electrospray mode following the mass transitions 303.1 → 259.1 for arachidonic acid and 311.1 → 267.0 for d8-arachidonic acid. The activity of the compounds was calculated based on the ratio of intensities [arachidonic acid / d8- […]
(§4) This assay was performed as first described before.[39] […]

mouse MAGL = biological target: T2, mouse MAGL (Mus musculus, UniProt O35678); experiment: as above; format: biochemical
T2 sequence (O35678 1-303): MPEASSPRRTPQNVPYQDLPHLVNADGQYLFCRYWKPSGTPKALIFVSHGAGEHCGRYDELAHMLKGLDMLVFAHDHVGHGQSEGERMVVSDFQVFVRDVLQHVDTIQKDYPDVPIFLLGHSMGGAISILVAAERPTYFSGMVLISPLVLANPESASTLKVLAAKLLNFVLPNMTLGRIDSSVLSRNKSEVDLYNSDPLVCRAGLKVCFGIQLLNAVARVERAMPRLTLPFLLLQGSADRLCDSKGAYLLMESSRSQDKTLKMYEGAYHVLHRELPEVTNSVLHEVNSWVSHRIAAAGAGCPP
Method: as §1, §2, §3, §4

[1] = biological target: T3, NanoLuc luciferase MAGL fusion protein in HEK293A cells (Homo sapiens, UniProt Q99685); experiment: Cellular MAGL NanoBRET target engagement assay; format: cell-based
T3 construct: expressed in transfected cells
T3 sequence (Q99685 1-303): T1 sequence (Q99685 1-303)
Method: We, therefore, confirmed cellular MAGL target engagement in a nanoBRET assay using live HEK293 cells.[39] […] To overcome the low cellular potency of 4, we exploited the modular construction principle to modulate unfavorable physicochemical properties and investigated less polar, privileged head groups[23, 33, 40] (Supporting Information Table S4). […]
This assay was performed as first described before.[39]
Compounds were profiled by a novel cellular MAGL NanoBRET™ Target Engagement assay, which measures the apparent affinity of test compounds by competitive displacement of a Roche-developed Tracer (WO2021058443, Example 21)[21], reversibly bound to a NanoLuc® luciferase MAGL fusion protein in cells.
A HEK293A stable cell line expressing NanoLuc_MAGL was established at Roche and assigned as HEK293A_NanoLuc_MAGL clone #43. A fixed concentration of tracer is added to cells expressing the NanoLuc®_MAGL fusion protein to generate a BRET reporter complex. The introduction of competing compounds results in a dose-dependent decrease in NanoBRET™ energy transfer, which allows quantification of the intracellular affinity of the target protein for the […]
HEK293A_NanoLuc_MAGL clone #43 cells were cultured in DMEM (Gibco 31966) with 10% FBS and 800 ug/ml G418. The NanoBRET assay was performed by seeding 5000 cells/well in Costar low-volume white 384-well plate in assay buffer (1% FBS in HBSS), followed by adding 50 nM final concentration of tracer and serial dilutions of test compounds. After 2 hours of incubation, Nanoluciferase substrates and extracellular inhibitors were added following the manufacturer's protocol (Promega, #N2520), and the NanoBRET signaling were quantified with the Paradigm

[2] = Fluorescence excitation/absorption and emission maxima; format: physicochemical; settings: PBS pH 7.4
Source text: Figure S8. Fluorescence excitation and emission spectra of the utilized fluorescent reporters in PBS pH 7.4. Spectra l differences between probes carrying the same fluorophore were […]
Table S6. Fluorescence excitation, emission maxima, and Stokes-shift in PBS pH 7.4 for the used fluorophores, respectively. difference s between probes with the same fluorophore were […]
λmax Excitation [nm] λmax Emission [nm] Stokes-shift [nm]
(1 picture or pasted object on this page, not shown here)

Cyno MAGL = Cyno MAGL (Macaca fascicularis, UniProt A0A2K5V664); experiment: In vitro MAGL inhibition assay; format: biochemical, cynomolgus monkey; settings: Supporting Information Table S4
Sequence of Cyno MAGL (A0A2K5V664 entry or part of it): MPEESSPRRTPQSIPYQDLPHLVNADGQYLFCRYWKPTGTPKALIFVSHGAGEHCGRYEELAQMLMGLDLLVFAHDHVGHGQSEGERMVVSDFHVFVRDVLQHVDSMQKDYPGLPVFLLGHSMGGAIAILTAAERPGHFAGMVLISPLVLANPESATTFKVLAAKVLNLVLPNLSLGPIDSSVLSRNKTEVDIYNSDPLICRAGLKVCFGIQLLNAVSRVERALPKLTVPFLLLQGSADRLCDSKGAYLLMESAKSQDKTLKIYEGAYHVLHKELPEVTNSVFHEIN
Method: as §1, §2
Compounds were profiled for MAGL inhibitory activity by determining the enzymatic activity by following the hydrolysis of the natural substrate 2-arachidonoylglycerol (2-AG), resulting in arachidonic acid, which can be followed by mass spectrometry. The 2-AG assay was carried out in 384 well assay plates (PP, Greiner Cat# 784201) in a total volume of 20 µL. Compound dilutions were made in 100% DMSO (VWR Chemicals 23500.297) in a polypropylene plate in 3-fold dilution steps to give a final concentration range in the assay from 12.5 µM to 0.8 pM. […] The activity of the compounds was calculated based on the ratio of intensities [arachidonic acid / d8- […]

[3] = Supporting Information Tables S1-S5, read-out: IC50 hMAGL
[4] = Supporting Information Tables S1-S5, read-out: IC50 mMAGL
[5] = Table 2, mean of three independent measurements ± SD, read-out: HEK 293 nanoBRET IC50±SD
[6] = Table 2, mean of three independent measurements ± SD, read-out: hMAGL IC50±SD
[7] = Table 2, mean of three independent measurements ± SD, read-out: mMAGL IC50±SD
[8] = Table 1, transfected HEK293 cells, n=1 to 3, read-out: HEK293 nanoBRET IC50
[9] = Table 1, n=1 to 3, read-out: hMAGL IC50
[10] = Table 1, n=1 to 3, read-out: mMAGL IC50

| SMILES | IC50 (human MAGL; [3]) | IC50 (mouse MAGL; [4]) | IC50 [1, 8] | IC50 (human MAGL; [9]) | IC50 (mouse MAGL; [10]) | also measured |
| --- | --- | --- | --- | --- | --- | --- |
| Cc1ccc(C(c2ccccc2)C2CCN(C(=O)N3CCC4OCC(=O)NC4C3)CC2)cc1 (stereo not drawn) [Compound 85] |  |  |  |  |  | IC50 (MAGL): 0.1 nM |
| O=C(NCCCCCOc1ccccc1CC1CC2(C1)CN(C(=O)O[C@H](CO)C(F)(F)F)C2)O[C@H]1CC/C=C/CCC1 [Compound 14] |  |  |  |  |  | IC50 [1, 5]: 1250 ± 507 nM; IC50 (human MAGL; [6]): 0.31 ± 0.13 nM; IC50 (mouse MAGL; [7]): 0.42 ± 0.17 nM |
| O=C1CO[C@H]2CCN(C(=O)N3CC(COCc4ccccc4OCCNC(=O)OCc4ccccc4)C3)C[C@H]2N1 [Compound 3] | 2 nM | 5 nM | 141 nM | 2.14 nM | 5.41 nM |  |
| O=C1NC2(CO1)CN(C(=O)N1CC3(CC(Cc4ccccc4OCCNc4ccc([N+](=O)[O-])c5c4NON5)C3)C1)C2 [Compound 8] | 0.124 nM | 0.138 nM | 307 nM | 0.09 nM | 0.11 nM | λmax Em (fluorescence emission maximum) [2]: 554 nm; λmax Ex (fluorescence excitation maximum) [2]: 479 nm; IC50 [1, 5]: 308 ± 114 nM; IC50 (human MAGL; [6]): 0.09 ± 0.03 nM; IC50 (mouse MAGL; [7]): 0.12 ± 0.04 nM |
| O=C1NC2(CO1)CN(C(=O)N1CC(COCc3ccccc3OCCNc3ccc([N+](=O)[O-])c4nonc34)C1)C2 [Compound 6] |  |  | 318 nM | 0.72 nM | 1.03 nM |  |
| C#CCCCC(=O)NCCOc1ccccc1CC1CC2(C1)CN(C(=O)OC(C(F)(F)F)C(F)(F)F)C2 [Compound 13] |  |  |  |  |  | IC50 [1, 5]: 99 ± 23 nM; IC50 (human MAGL; [6]): 0.14 ± 0.04 nM; IC50 (mouse MAGL; [7]): 0.13 ± 0.05 nM |
| O=C1CO[C@H]2CCN(C(=O)N3CC(COCc4cccc(OCCNC(=O)OCc5ccccc5)c4)C3)C[C@H]2N1 [Compound 2] | 31 nM | 97 nM | 406 nM | 30.8 nM | 97.4 nM |  |
| O=C(NCCOc1ccccc1COCC1CN(C(=O)N2CC3(COC(=O)N3)C2)C1)OCc1ccccc1 [Compound 5] |  |  | 61 nM | 0.29 nM | 0.59 nM | IC50 (Cyno MAGL): 0.094 nM |
| O=C(NCCOc1ccccc1COCC1CN(C(=O)OC(C(F)(F)F)C(F)(F)F)C1)OCc1ccccc1 [Compound 7] |  |  | 222 nM | 0.65 nM | 0.85 nM |  |
| O=C1CO[C@H]2CCN(C(=O)N3CC(COCc4ccccc4)C3)C[C@H]2N1 [Compound 1] |  |  | > 10000 nM | 379 nM | 526 nM |  |

Second part, led by results:

| IC50 (human MAGL; [3]) | IC50 (mouse MAGL; [4]) | IC50 [1, 8] | IC50 (human MAGL; [9]) | IC50 (mouse MAGL; [10]) | SMILES | also measured |
| --- | --- | --- | --- | --- | --- | --- |
| 7.5 nM | 35 nM |  |  |  | O=C1COc2ccc(C(=O)N3CC(COCc4ccccc4OCCNC(=O)OCc4ccccc4)C3)cc2N1 [Compound S18] |  |
| 11 nM | 38 nM |  |  |  | O=C1CO[C@H]2CCN(C(=O)N3CC4(CC(OCc5ccccc5OCCNC(=O)OCc5ccccc5)C4)C3)C[C@H]2N1 [Compound S3] |  |
| 28 nM | 76 nM |  |  |  | O=C1CO[C@H]2CCN(C(=O)N3CC4(CC(OCc5cccc(OCCNC(=O)OCc6ccccc6)c5)C4)C3)C[C@H]2N1 [Compound S11] |  |
| 9.2 nM | 66 nM |  |  |  | O=C(NCCOc1ccccc1COCC1CN(C(=O)CC[C@@H]2COC(=O)N2)C1)OCc1ccccc1 [Compound S19] |  |
| 44 nM | 38 nM |  |  |  | O=C1CO[C@H]2CCN(C(=O)N3CC(OCc4cccc(OCCNC(=O)OCc5ccccc5)c4)C3)C[C@H]2N1 [Compound S9] |  |
| 3 nM | 7 nM |  |  |  | O=C1CO[C@H]2CCN(C(=O)N3CC(COCc4ccccc4OCCCNC(=O)OCc4ccccc4)C3)C[C@H]2N1 [Compound S7] |  |
| 97 nM | 315 nM |  |  |  | O=C1CO[C@H]2CCN(C(=O)N3C[C@@H]4C(COCc5ccccc5OCCNC(=O)OCc5ccccc5)[C@@H]4C3)C[C@H]2N1 (stereo partly drawn) [Compound S6] |  |
| 46 nM | 144 nM |  |  |  | O=C1CO[C@H]2CCN(C(=O)N3CC(COCc4ccccc4OCCCCCNC(=O)OCc4ccccc4)C3)C[C@H]2N1 [Compound S8] |  |
| 7 nM | 21 nM |  |  |  | O=C1CO[C@H]2CCN(C(=O)N3CCC4(CC3)CC(OCc3ccccc3OCCNC(=O)OCc3ccccc3)C4)C[C@H]2N1 [Compound S5] |  |
| 70 nM |  |  |  |  | O=C1CO[C@H]2CCN(C(=O)N3CC(OCc4ccccc4OCCNC(=O)OCc4ccccc4)C3)C[C@H]2N1 [Compound S1] |  |
| 15 nM | 38 nM |  |  |  | O=C1CO[C@H]2CCN(C(=O)N3CC4(CCC(OCc5ccccc5OCCNC(=O)OCc5ccccc5)CC4)C3)C[C@H]2N1 [Compound S4] |  |
| 0.122 nM | 0.119 nM |  |  |  | CN1/C(=C\C=C\C2=[N+](CCCCCC(=O)NCCOc3ccccc3CC3CC4(C3)CN(C(=O)N3CC5(COC(=O)N5)C3)C4)c3ccccc3C2(C)C)C(C)(C)c2ccccc21 [Compound S21] |  |
